Experimental data published in patent publication US8252766B2 (CBT Development Limited, priority 2002, dated 2012).

What was measured:
static allodynia = static allodynia in a model of neuropathic pain; assay type: in vivo
Procedure: Spongosine and gabapentin were administered (p.o.) in different proportions as indicated in the drawing. The total dose administered is shown on the horizontal axis, and the paw withdrawal threshold (PWT) on the vertical axis. The predicted anti-hyperalgesic effect (derived from the dose response curves obtained with each agent alone) if the effects of the two compounds are additive is shown (●). The observed effects are indicated by (▪).

[1] = test system: carrageenan-induced oedema; conditions: rats; inhibition of carrageenan-induced oedema in a rat paw; cited from earlier work
[2] = rats; cited from earlier work
[3] = blood pressure and heart rate by implantable radiotelemetry; assay type: in vivo, rat; conditions: 0.624 mg/kg p.o., normal rats
Text: An implantable radiotelemetry device was placed in the abdominal cavity of 6 rats per group. The pressure catheter of the device was inserted in the abdominal aorta and two electrodes tunnelised under the skin in a lead II position (left side of abdominal cavity/right shoulder). Individual rats were placed in their own cage on a radioreceptor (DSI) for data acquisition. A: blood pressure, B; heart rate.

[4] = test system: normal physiological nociception; assay: normal physiological nociception; assay type: in vivo; conditions: after administration of spongosine
[5] = test system: thermal hyperalgesia caused by chronic constriction injury; assay: thermal hyperalgesia caused by chronic constriction injury of the rat sciatic nerve; assay type: in vivo
Text: After approximately two weeks the rats developed thermal hyperalgesia in the operated leg as judged by the difference in paw withdrawal latencies of the right and left paws.

[6] = test system: carrageenan (CGN) induced thermal hyperalgesia; assay: carrageenan induced thermal hyperalgesia (CITH); assay type: in vivo
Procedure: Carrageenan (2%, 10 microliters) was administered into the right hind paw. A heat source was placed close to the treated and untreated hind paws, and the difference in the paw withdrawal latencies is shown. Spongosine was administered at the same time as carrageenan.

Row | Compound | inhibition of static allodynia (paw withdrawal threshold, PWT) (static allodynia; 1.2 mg/kg p.o., absence of naloxone) | inhibition of static allodynia (paw withdrawal threshold, PWT) (static allodynia; 1.2 mg/kg p.o., presence of naloxone 1 mg/kg s.c.) | inhibition of static allodynia (paw withdrawal threshold, PWT) (static allodynia; p.o., dose response, Example 5) | anti-inflammatory activity [1] | hypotensive activity [2] | hypothermic activity [2] | muscle relaxant activity [2] | effect on blood pressure [3] | effect on heart rate [3] | analgesic effect on normal physiological nociception [4] | inhibition of thermal hyperalgesia (difference in paw withdrawal latencies) ([5]; 0.624 mg/kg p.o., rat, about two weeks after sciatic nerve ligation) | efficacy relative to carbamazepine ([5]; spongosine 0.624 mg/kg p.o. versus carbamazepine 100 mg/kg s.c.) | inhibition of carrageenan induced thermal hyperalgesia (difference in paw withdrawal latencies) ([6]; 0.624 mg/kg p.o., given at the same time as carrageenan (2%, 10 microliters, right hind paw)) | efficacy relative to indomethacin ([6]; spongosine 0.624 mg/kg p.o. versus indomethacin 3 mg/kg po)
1 | COc1nc(N)c2ncn([C@@H]3O[C@H](CO)[C@@H](O)[C@H]3O)c2n1 [Spongosine, 2-methoxyadenosine] | inhibits | inhibits | inhibit | anti-inflammatory activity | hypotensive | hypothermic | muscle relaxant | no significant effect | no significant effect | No analgesic effect | inhibits | as, or more, effective | inhibits | comparable efficacy
2 | NCC1(CC(=O)O)CCCCC1 [gabapentin, reference compound] | – | – | inhibit | – | – | – | – | – | – | – | – | – | – | –
